Measurements published in article PMC6348443 (Journal of Medicinal Chemistry, 2018).
Counter-ions that a name gives are not always drawn.

Tests used:
MOR [1] = target: T1, MOR (Rattus norvegicus, UniProt P33535); experiment: competition radioligand binding, rat brain membranes, [3H]DAMGO; settings: for Ki: rat brain membranes, read-out: opioid receptor binding Ki MOR
T1 construct: Membranes were prepared from Sprague-Dawley rat brains or guinea-pig brains according to the described procedures; tissue Labortierkunde und Laborgenetik, Medizinische Universität Wien; host or cells: Sprague-Dawley rat brain without cerebella

DOR [2] = target: T2, DOR (Rattus norvegicus, UniProt P33533); experiment: competition radioligand binding, rat brain membranes, [3H][Ile5,6]deltorphin II; settings: rat brain membranes; read-out: opioid receptor binding Ki DOR
T2 construct: Membranes were prepared from Sprague-Dawley rat brains or guinea-pig brains according to the described procedures; tissue Labortierkunde und Laborgenetik, Medizinische Universität Wien; host or cells: Sprague-Dawley rat brain without cerebella

KOR [3] = target: T3, KOR (Cavia porcellus, UniProt P41144); experiment: competition radioligand binding, guinea-pig brain membranes, [3H]U69,593; settings: guinea-pig brain membranes; read-out: opioid receptor binding Ki KOR
T3 construct: Membranes were prepared from Sprague-Dawley rat brains or guinea-pig brains according to the described procedures; tissue Labortierkunde und Laborgenetik, Medizinische Universität Wien; host or cells: guinea-pig brain without cerebella

MOR [4] = target: T4, MOR (Homo sapiens, UniProt P35372); experiment: [35S]GTPγS binding assay, CHO-hMOR membranes; type: biochemical; settings: for EC50: [35S]GTPγS, CHO human MOR membranes, read-out: MOR EC50; for Emax: relative to reference full agonist DAMGO, read-out: MOR % stim.
T4 construct: host or cells: CHO (CHO-hMOR)

DOR [5] = target: T5, DOR (Homo sapiens, UniProt P41143); experiment: [35S]GTPγS binding assay, CHO-hDOR membranes; type: biochemical; settings: for EC50: [35S]GTPγS, CHO human DOR membranes; for Emax: relative to reference full agonist DPDPE, read-out: DOR % stim.
T5 construct: host or cells: CHO (CHO-hDOR)

KOR [6] = target: T6, KOR (Homo sapiens, UniProt P41145); experiment: [35S]GTPγS binding assay, CHO-hKOR membranes; type: biochemical; settings: for EC50: [35S]GTPγS, CHO human KOR membranes, read-out: KOR EC50; for Emax: relative to reference full agonist U69,593, read-out: KOR % stim.
T6 construct: host or cells: CHO (CHO-hKOR)

[7] = system: peripheral opioid receptors; experiment: antagonism by naloxone methiodide in the acetic acid-induced writhing assay; type: in vivo, mouse; settings: sc co-administration with naloxone methiodide 1 mg/kg; agonist 50 or 200 μg/kg sc; 30 min
Text: To determine whether targeted 6-amino acid and 6-dipeptide analogues inhibit writhing behavior in mice through peripheral opioid receptors activation, we used naloxone methiodide.[27]
Values are shown as mean of writhes ± SEM (n = 6–7 mice per group). ***P < 0.001 vs control group; ^#P < 0.05, ^##P < 0.01 and ^###P < 0.001 vs agonist treated group, ANOVA with Tukey’s post hoc test.
Writhing was induced in male CD1 mice by ip injection of a 0.6% acetic acid aqueous solution as described previously.[48],[62] Groups of mice were administered sc different doses of test compound or saline (control), and 5 min prior to testing (25 min after drug or saline), each animal received an ip injection of acetic acid solution. Each mouse was placed in individual transparent Plexiglas chambers, and the number of writhes was counted during a 10 min observation period. […] For the antagonism study, naloxone methiodide was sc co-administered with the respective opioid agonist, and writhing was assessed as described above.

male CD1 mice = experiment: acetic acid-induced writhing assay after sc administration; type: in vivo, mouse; settings: for ED50: Mus musculus, 0.5 h, read-out: ED50 (95% CI), mice, sc, inhibition of writhing 30 min after drug administration

CO[C@@]12CC[C@@H](N[C@@H](CCCCN)C(=O)O)[C@@H]3Oc4c(O)ccc5c4[C@@]31CCN(C)[C@@H]2C5 [Compound 8b, (2S)-6-Amino-2-[(4,5α-epoxy-3-hydroxy-14β-methoxy-17-methylmorphinan-6β-yl)amino]hexanoic Acid Trihydrochloride]
Ki (MOR [1]): 0.53 ± 0.09 nM
Ki (DOR [2]): 3.34 ± 0.46 nM
Ki (KOR [3]): 33.7 ± 4.1 nM
EC50 (MOR [4]): 6.85 ± 1.39 nM
Emax (MOR [4]): 90 ± 7%
EC50 (DOR [5]): 45.1 ± 22.7 nM
Emax (DOR [5]): 93 ± 8%
EC50 (KOR [6]): 525 ± 24 nM
Emax (KOR [6]): 62 ± 7%
effect of naloxone methiodide on antinociceptive effect [7]: antagonized

CO[C@@]12CC[C@@H](NCC(=O)NCC(=O)O)[C@@H]3Oc4c(O)ccc5c4[C@@]31CCN(C)[C@@H]2C5 [Compound 23a, 2-[2-[(4,5-Epoxy-3-hydroxy-14β-methoxy-17-methylmorphinan-6β-yl)amino]acetylamino]acetic Acid]
lower affinity at MOR vs 2a (MOR [1]; rat brain): about 5 times
EC50 (MOR [4]): 4.39 ± 0.54 nM
functional profile at MOR (full/partial agonist) (MOR [4]; full agonist ≥85% of the response to DAMGO): full agonist
Emax (MOR [4]): 85 ± 9%
EC50 (DOR [5]): 2.84 ± 1.63 nM
functional profile at DOR (full/partial agonist) (DOR [5]; full agonist ≥85% of the response to DPDPE): full agonist
Emax (DOR [5]): 102 ± 7%
EC50 (KOR [6]): 885 ± 298 nM
Emax (KOR [6]): 75 ± 0.7%
ED50 (male CD1 mice): 0.104 mg/kg
higher antinociceptive potency than morphine (male CD1 mice; writhing assay, mice): 4 times
effect of naloxone methiodide on antinociceptive effect [7]: antagonized

CO[C@@]12CC[C@H](N[C@@H](CCCCN)C(=O)O)[C@@H]3Oc4c(O)ccc5c4[C@@]31CCN(C)[C@@H]2C5 [Compound 8a, (2S)-6-Amino-2-[(4,5α-epoxy-3-hydroxy-14β-methoxy-17-methylmorphinan-6α-yl)amino]hexanoic Acid Trihydrochloride]
EC50 (MOR [4]): 2.25 ± 0.07 nM
Emax (MOR [4]): 90 ± 8%
EC50 (DOR [5]): 152 ± 2 nM
Emax (DOR [5]): 106 ± 4%
EC50 (KOR [6]): 118 ± 26 nM
Emax (KOR [6]): 79 ± 13%
ED50 (male CD1 mice): 0.0206 mg/kg
effect of naloxone methiodide on antinociceptive effect [7]: reversed

CO[C@@]12CC[C@@H](N[C@H](C(=O)O)C3CCCCC3)[C@@H]3Oc4c(O)ccc5c4[C@@]31CCN(C)[C@@H]2C5 [Compound 18b, (2S)-2-[(4,5α-Epoxy-3-hydroxy-14β-methoxy-17-methyl-morphinan-6β-yl)-amino]-2-cyclohexylacetic Acid Dihydrochloride]
Ki (MOR [1]): 1.66 ± 1.04 nM
Ki (DOR [2]): 1.3 ± 0.16 nM
Ki (KOR [3]): 118 ± 23 nM
EC50 (MOR [4]): 5.33 ± 0.89 nM
Emax (MOR [4]): 86 ± 9%
EC50 (DOR [5]): 3.57 ± 1.63 nM
Emax (DOR [5]): 96 ± 10%
EC50 (KOR [6]): 282 ± 58 nM
Emax (KOR [6]): 59 ± 7%
effect of naloxone methiodide on antinociceptive effect [7]: antagonized
